This note sets out measurements from patent US20240269304A1, “BCL-XL INHIBITOR ANTIBODY-DRUG CONJUGATES AND METHODS OF USE THEREOF” (Novartis AG, priority 2020, published 2024).

The structures appear in SMILES notation.

The test system of assay [1] is H1650 human non-small cell lung carcinoma (NSCLC) model. Description: In vivo efficacy of EGFR2-Bcl-xL inhibitor ADC in combination with docetaxel, H1650 xenografts (Example 15). Also noted: species or system female SCID mice. The settings on record: Vehicle iv + docetaxel 7.5 mg/kg qdx1 iv 24 h later. How it is done: H1650 cells were cultured at 37° C. in an atmosphere of 5% CO2 in air in RPMI1640 (BioConcept Ltd. Amimed, #1-41F01-1) supplemented with 10% FCS (BioConcept Ltd. Amimed, #2-01F30-1), 2 mM L-glutamine (BioConcept Ltd. Amimed, #5-10K00-H) and 1 mM sodium pyruvate (BioConcept Ltd. Amimed, #5-60F00-H), 10 mM HEPES (Gibco #11560496) and D-glucose 1.25g/500 mL medium (Gibco, #A24940-01). To establish H1650 xenografts, cells were harvested and re-suspended in HBSS (Gibco, #14175)/Matrigel (Corning #354234) (1:1 v/v) before injecting 100 μL containing 5×10^6 cells subcutaneously in the flanks of female SCID mice (Taconic, Europe). Tumor growth was monitored regularly post cell inoculation and animals were randomized into treatment groups (n=6) with a mean tumor volume of about 150 mm^3. The ADCs were administered intravenously (i.v.) once at the start of treatment at 30 mg/kg in combination with 7.5 mg/kg docetaxel (Zentiva: 1 ml/20 mg) which was administered i.v. once 24 h after the ADCs. Doses were adjusted to individual mouse body weights. The i.v. dose volume was 10 ml/kg and each ADC was dissolved in 0.9% (w/v) NaCl in water and the docetaxel stock solution was diluted to appropriate concentration with 5% (w/v) sterile glucose solution prior to administration.
Tumor volume data on day 21 and 28 post treatment initiation were analyzed for statistical difference relative to vehicle control group and EGFR-Bcl-xLi (L109A-P1) ADC, using one way ANOVA post hoc Tukey's multiple comparisons test (Indigo Software). Results are presented as mean±SEM.
As a measure of efficacy the %T/C value was calculated on day 21 according to:
(Δtumor volume treated/Δtumor volume control)*100 Tumor regression was calculated according to:
−(Δtumor volume treated/tumor volume treated at start)*100
Where Δtumor volumes represent the mean tumor volume on the evaluation day minus the mean tumor volume at the start of the experiment.

In another assay the test system is EBC-1 xenografts. Description: In vivo testing of EpCAM ADCs with paclitaxel, EBC-1 xenografts (Example 17). Also noted: species or system female nude mice. The settings on record: Paclitaxel Alone. How it is done:
EBC-1 cells were cultured at 37° C. (atmosphere of 5% CO2) in DMEM (Gibco 11965-084) supplemented with 10% FBS (HI-FBS #134K19, Tet-free). Treatment with 0.25% Trypsin (Gibco 25200-056) was used for sub-culturing. To establish EBC-1 xenografts, cells were harvested and re-suspended in a 1:1 v/v mixture of phosphate buffered saline and Matrigel. A total of 5×10^6 cells in a volume of 150 μL were injected subcutaneously in the flanks of female nude mice (Charles River, USA). Tumor growth was monitored regularly post cell inoculation and animals were randomized into treatment groups (n=8) with a mean tumor volume of about 210 mm^3. EpCAM-DANAPA-L11C-P25 ADC, 3207-DANAPA-L11C-P25 isotype control ADC, and EpCAM-DANAPA CysMab control antibody were all dosed in combination with paclitaxel (LC Laboratories, Woburn, MA, Cat #: P-9600) as indicated in FIG. 13. The ADCs and CysMab antibody were administered intravenously (i.v.) once at the start of treatment at 30 mg/kg. Paclitaxel was administered i.v. once at 12.5 mg/kg, 24 h after the ADC or CysMab dose. All reagents were dosed at 10 mL/kg based on the individual mouse body weight. The ADCs and CysMab were formulated at 3 mg/mL in PBS on the day of treatment. Paclitaxel was reconstituted in 50% Ethanol+50% Cremophor EL (Kolliphor EL) at a concentration of 6 mg/mL, and then further diluted to 1.25 mg/mL with sterile saline prior to administration on the day of treatment.
Tumor volume data were analyzed for statistical difference relative to the EpCAM-DANAPA-L 11C-P25 ADC+ paclitaxel combination group. Unpaired two-tailed T-tests were used to make comparisons between groups.
As a measure of efficacy, %T/C values were calculated according to the formula: […]
Tumor regression was calculated according to the formula: […]
Δtumor volumes represent mean tumor volumes on the measurement day minus the mean tumor volume at the start of treatment. The Δtumor volume control value specified above refers to mean tumor volume changes in the vehicle group.

With `CC(=O)O[C@@]12CO[C@@H]1C[C@H](O)[C@@]1(C)C(=O)[C@H](O)C3=C(C)[C@@H](OC(=O)[C@H](O)[C@@H](NC(=O)OC(C)(C)C)c4ccccc4)C[C@@](O)([C@@H](OC(=O)c4ccccc4)[C@H]21)C3(C)C` [docetaxel], the “Response on day 21 T/C (%)” value in assay [1] (day 21) is given as 51%. In addition, the “ΔTumor volume (mm^3) D21” value in assay [1] (day 21, mean) was determined as 396.59 mm^3. For the same compound, the “Maximum regression (day)” value in assay [1] (maximum on D7) is reported as −1. Also, the “Significance On D21 vs Isotype-DANAPA-L109A-P1-ADC group” value in assay [1] (vs IgG CysMab DANAPA-L109A-P1 ADC + docetaxel, printed with (growth)) is “P < 0.05 (growth)”.

For the compound `CC(=O)O[C@H]1C(=O)[C@@]2(C)[C@H]([C@H](OC(=O)c3ccccc3)[C@]3(O)C[C@H](OC(=O)[C@H](O)[C@@H](NC(=O)c4ccccc4)c4ccccc4)C(C)=C1C3(C)C)[C@]1(OC(C)=O)CO[C@@H]1C[C@@H]2O` [Paclitaxel, paclitaxel], in the assay on EBC-1 xenografts (Day 10), the “% T/C (Day of Evaluation)” value was 34% and the “ΔTumor volume (mm^3 ± SEM) (Day of Evaluation)” value amounted to 510.8 ± 158.5 mm^3. In addition, the “Significance vs EpCAM-DANAPA-L11C-P25 ADC on Day 9 (Day of Evaluation)” value in the assay on EBC-1 xenografts (Day 10, unpaired two-tailed T-test vs EpCAM-DANAPA-L11C-P25 ADC + paclitaxel group) was “P = 0.0014”. Moreover, the “Complete Responders (Day of Evaluation)” value in the assay with EBC-1 xenografts (Day 32, tumors regressed to 0 mm^3) was 0/8.
